Data: doi:10.1101/534982v1 (biorxiv, 2019)

Tests used:
Assay in all cases: fluorescence reverse titration
α-tetramerization domain = target: T1, α-tetramerization domain (Homo sapiens, UniProt P02549); type: binding
T1 sequence (P02549 1-158): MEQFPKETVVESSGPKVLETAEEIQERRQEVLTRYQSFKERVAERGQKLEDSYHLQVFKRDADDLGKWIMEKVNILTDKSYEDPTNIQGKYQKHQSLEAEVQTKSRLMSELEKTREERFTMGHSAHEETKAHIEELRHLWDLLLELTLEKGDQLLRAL

SH3 domain = target: T2, SH3 domain (Homo sapiens, UniProt P02549); type: binding
T2 sequence (P02549 973-1055): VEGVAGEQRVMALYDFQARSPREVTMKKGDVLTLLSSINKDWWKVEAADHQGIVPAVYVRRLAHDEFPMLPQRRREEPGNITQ

actin binding domain = actin binding domain (Homo sapiens, UniProt P11277)
spectrin repeat domain = target: T3, spectrin repeat domain (Homo sapiens, UniProt P02549); type: binding
T3 sequence (P02549 1470-1576): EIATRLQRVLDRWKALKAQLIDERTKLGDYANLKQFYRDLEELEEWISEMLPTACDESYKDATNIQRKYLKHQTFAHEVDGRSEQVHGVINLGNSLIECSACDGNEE

[1] = target: Spectrin (dimeric human erythroid spectrin) (Homo sapiens, UniProt P02549+P11277); type: binding
α-dimerization domain = target: T4, α-dimerization domain (Homo sapiens, UniProt P02549); type: binding
T4 sequence (P02549 2002-2233): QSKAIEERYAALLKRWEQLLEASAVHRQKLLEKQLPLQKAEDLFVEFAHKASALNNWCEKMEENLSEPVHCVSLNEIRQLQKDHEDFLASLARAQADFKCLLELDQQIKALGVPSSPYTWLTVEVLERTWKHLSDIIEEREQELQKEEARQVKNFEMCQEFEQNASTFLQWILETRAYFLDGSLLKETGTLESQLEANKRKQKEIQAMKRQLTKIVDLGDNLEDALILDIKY

[2] = target: T5, Self-association domain (reconstituted) (Homo sapiens, UniProt P02549+P11277); type: binding
T5 sequence (P02549 1-158): T1 sequence (P02549 1-158)
T5 sequence (P11277 1895-2137): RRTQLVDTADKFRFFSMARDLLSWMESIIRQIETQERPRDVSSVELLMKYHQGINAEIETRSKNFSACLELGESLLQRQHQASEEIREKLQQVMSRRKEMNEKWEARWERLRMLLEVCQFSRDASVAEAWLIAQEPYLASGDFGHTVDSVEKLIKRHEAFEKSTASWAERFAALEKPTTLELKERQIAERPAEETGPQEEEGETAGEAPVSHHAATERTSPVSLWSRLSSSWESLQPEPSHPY

β-dimerization domain = β-dimerization domain (Homo sapiens, UniProt P11277); type: binding
β-tetramerization domain = target: T6, β-tetramerization domain (Homo sapiens, UniProt P11277); type: binding
T6 sequence (P11277 1895-2137): T5 sequence (P11277 1895-2137)

ankyrin binding domain = target: T7, ankyrin binding domain (Homo sapiens, UniProt P11277)
T7 sequence (P11277 1657-1876): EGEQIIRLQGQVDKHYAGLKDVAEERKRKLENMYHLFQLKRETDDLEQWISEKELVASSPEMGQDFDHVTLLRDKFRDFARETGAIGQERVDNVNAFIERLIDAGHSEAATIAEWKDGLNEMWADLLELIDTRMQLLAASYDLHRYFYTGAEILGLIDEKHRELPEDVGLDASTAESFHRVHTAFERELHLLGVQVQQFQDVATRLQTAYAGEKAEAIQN

Chain of actin binding domain (P11277 1-316): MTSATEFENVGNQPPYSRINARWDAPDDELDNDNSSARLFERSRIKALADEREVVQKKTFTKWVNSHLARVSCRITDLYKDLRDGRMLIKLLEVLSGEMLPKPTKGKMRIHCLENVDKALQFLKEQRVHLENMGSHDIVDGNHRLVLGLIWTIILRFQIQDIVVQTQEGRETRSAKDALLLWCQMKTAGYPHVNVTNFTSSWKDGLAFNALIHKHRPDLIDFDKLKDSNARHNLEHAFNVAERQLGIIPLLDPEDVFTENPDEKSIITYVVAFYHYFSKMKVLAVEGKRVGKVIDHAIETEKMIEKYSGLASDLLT
Chain of Spectrin (dimeric human erythroid spectrin) (P02549 whole entry, the tested form may be a part): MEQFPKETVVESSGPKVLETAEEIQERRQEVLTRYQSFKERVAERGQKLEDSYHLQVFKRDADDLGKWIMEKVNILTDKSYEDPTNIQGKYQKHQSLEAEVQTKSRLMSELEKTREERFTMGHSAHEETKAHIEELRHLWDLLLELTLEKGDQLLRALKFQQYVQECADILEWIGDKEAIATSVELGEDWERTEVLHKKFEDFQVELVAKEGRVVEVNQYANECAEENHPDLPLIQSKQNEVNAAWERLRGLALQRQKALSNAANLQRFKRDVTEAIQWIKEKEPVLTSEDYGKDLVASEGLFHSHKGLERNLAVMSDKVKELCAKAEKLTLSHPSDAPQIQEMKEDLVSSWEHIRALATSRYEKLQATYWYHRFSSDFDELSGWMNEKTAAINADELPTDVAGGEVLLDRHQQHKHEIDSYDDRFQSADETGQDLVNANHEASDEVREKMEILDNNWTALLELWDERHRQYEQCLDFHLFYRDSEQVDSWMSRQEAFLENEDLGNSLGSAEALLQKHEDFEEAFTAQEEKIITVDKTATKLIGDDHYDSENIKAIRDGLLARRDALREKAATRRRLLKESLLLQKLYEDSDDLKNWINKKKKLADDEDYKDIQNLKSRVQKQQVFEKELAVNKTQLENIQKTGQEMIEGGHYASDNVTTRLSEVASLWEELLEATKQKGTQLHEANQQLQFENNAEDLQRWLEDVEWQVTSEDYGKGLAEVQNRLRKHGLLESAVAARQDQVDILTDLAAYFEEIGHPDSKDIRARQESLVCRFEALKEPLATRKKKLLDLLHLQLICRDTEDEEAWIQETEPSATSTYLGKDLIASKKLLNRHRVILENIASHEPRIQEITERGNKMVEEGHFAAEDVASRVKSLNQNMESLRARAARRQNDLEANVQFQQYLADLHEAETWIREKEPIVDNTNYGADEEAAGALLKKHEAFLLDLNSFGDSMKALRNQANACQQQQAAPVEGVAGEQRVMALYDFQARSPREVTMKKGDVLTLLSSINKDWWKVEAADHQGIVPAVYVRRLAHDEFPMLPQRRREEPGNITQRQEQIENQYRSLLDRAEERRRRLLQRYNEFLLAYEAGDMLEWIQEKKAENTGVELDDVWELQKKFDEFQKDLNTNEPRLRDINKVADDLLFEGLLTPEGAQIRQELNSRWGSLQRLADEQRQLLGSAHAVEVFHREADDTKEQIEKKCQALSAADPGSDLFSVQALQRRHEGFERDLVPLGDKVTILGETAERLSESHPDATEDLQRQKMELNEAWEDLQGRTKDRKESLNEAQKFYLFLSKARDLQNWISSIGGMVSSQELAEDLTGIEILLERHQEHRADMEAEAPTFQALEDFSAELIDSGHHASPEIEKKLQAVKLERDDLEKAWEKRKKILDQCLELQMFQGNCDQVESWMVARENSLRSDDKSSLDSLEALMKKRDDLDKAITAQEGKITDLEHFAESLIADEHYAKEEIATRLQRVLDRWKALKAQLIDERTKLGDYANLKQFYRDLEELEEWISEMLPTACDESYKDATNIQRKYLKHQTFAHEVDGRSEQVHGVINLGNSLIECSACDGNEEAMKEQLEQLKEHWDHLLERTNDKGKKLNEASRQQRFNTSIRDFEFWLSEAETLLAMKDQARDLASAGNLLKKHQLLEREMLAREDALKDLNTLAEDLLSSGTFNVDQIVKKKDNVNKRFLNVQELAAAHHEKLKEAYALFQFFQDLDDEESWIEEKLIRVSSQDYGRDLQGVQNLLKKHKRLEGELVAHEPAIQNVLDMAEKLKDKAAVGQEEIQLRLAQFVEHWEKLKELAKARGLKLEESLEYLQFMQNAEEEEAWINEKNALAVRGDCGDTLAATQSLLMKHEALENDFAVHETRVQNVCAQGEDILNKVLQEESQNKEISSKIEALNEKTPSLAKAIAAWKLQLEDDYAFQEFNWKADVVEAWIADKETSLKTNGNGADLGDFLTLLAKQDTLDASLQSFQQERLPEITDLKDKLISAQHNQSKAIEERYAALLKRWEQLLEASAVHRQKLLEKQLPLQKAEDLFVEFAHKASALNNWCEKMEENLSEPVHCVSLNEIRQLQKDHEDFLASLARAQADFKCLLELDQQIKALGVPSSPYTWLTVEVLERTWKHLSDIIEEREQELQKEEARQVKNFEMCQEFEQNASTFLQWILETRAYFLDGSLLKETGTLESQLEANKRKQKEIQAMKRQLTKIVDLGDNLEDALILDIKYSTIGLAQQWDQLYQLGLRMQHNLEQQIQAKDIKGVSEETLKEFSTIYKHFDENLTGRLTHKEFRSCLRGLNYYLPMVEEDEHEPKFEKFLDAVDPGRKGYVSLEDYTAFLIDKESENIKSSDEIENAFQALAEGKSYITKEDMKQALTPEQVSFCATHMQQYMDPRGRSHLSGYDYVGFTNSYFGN
Chain of Spectrin (dimeric human erythroid spectrin) (P11277 2-2137): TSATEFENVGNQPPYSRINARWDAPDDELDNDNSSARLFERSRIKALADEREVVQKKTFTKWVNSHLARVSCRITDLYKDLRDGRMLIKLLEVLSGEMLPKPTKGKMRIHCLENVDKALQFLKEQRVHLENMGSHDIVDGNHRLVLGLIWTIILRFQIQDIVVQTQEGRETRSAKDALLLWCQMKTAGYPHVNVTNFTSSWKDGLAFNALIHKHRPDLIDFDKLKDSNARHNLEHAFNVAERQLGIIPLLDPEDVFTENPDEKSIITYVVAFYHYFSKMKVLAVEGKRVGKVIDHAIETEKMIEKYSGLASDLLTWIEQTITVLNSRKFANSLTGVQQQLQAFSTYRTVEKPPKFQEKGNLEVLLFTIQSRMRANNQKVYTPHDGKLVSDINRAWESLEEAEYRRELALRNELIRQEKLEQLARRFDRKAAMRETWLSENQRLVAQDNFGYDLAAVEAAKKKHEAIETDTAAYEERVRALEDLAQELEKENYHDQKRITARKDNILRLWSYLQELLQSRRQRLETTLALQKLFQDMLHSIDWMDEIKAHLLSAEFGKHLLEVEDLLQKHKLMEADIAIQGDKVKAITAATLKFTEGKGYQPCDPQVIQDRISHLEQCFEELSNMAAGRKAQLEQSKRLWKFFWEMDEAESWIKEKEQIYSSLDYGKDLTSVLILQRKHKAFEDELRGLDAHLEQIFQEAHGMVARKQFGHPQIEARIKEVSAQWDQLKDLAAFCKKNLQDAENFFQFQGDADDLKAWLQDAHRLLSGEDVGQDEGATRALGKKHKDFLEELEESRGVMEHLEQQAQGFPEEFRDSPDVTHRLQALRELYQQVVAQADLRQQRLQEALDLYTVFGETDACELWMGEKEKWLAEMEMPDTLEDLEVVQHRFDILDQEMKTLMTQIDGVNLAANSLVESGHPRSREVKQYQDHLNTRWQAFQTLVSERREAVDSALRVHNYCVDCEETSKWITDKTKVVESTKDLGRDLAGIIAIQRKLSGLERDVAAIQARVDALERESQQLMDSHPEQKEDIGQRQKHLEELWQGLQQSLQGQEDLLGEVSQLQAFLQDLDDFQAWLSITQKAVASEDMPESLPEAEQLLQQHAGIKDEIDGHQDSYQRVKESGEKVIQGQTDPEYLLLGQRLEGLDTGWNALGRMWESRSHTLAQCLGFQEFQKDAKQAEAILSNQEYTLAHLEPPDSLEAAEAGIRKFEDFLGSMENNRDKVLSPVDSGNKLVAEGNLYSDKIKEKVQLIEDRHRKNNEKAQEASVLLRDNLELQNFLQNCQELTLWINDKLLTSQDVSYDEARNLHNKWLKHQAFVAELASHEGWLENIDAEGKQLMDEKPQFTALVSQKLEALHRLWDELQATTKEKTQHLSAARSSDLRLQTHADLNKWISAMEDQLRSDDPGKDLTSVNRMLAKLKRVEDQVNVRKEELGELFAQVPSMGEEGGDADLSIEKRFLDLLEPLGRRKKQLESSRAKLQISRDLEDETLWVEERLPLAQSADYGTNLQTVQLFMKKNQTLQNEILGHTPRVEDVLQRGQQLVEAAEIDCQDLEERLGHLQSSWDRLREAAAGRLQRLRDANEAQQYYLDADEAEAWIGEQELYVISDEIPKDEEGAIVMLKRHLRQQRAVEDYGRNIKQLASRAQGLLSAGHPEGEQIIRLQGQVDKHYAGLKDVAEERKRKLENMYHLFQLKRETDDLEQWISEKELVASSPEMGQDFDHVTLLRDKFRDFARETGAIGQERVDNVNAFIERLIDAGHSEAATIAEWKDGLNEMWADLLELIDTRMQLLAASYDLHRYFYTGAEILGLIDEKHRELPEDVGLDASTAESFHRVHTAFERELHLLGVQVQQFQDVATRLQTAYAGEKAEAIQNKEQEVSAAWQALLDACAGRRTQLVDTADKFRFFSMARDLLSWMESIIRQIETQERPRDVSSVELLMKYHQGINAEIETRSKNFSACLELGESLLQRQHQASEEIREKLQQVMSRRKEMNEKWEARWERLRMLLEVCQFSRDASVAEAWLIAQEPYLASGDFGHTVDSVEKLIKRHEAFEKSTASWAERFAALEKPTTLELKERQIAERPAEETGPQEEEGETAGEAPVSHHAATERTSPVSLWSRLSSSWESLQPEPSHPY
Chain of β-dimerization domain (P11277 271-500): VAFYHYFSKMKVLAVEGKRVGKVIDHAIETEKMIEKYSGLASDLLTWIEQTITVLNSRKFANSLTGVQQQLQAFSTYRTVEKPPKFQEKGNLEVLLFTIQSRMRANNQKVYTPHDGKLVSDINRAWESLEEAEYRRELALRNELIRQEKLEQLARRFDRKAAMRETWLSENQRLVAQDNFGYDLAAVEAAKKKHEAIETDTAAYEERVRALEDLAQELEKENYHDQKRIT

Kd (α-tetramerization domain): 45.4 ± 3.1 µM
Kd (SH3 domain): 64 ± 2.7 µM
Kd (actin binding domain): 64.3 ± 3.9 µM
Kd (spectrin repeat domain): 47.7 ± 2.9 µM
Kd [1]: 30.1 ± 2 µM
Kd (α-dimerization domain): 51.5 ± 3.2 µM
Kd [2]: 38.9 ± 2.3 µM
Kd (β-dimerization domain): 37.2 ± 3.1 µM
Kd (β-tetramerization domain): 48.2 ± 3.3 µM
Kd (ankyrin binding domain): 40 ± 2.8 µM
SMILES: O=S(=O)(O)c1cccc2cccc(Nc3ccccc3)c12 [ANS, 1-anilinonaphthalene-8-sulfonic acid]
